Assay results: patent publication US9765049B2, “N-cycloalkyl-N-[(fusedphenyl)methylene]-(thio)carboxamide derivatives” (BAYER CROPSCIENCE AG, priority 2013, dated 2017)
Like-named read-outs stand apart in the source and are kept apart here.

Columns and labels:
[1] = log P by HPLC on reversed-phase column (C 18), EEC Directive 79/831 Annex V.A8; assay type: physicochemical; conditions: for logP: Table 1, HPLC, 40° C., 0.1% aqueous formic acid and acetonitrile
Description: In table 1, the log P values were determined in accordance with EEC Directive 79/831 Annex V.A8 by HPLC (High Performance Liquid Chromatography) on a reversed-phase column (C 18), using the method described below: Temperature: 40° C.; Mobile phases: 0.1% aqueous formic acid and acetonitrile; linear gradient from 10% acetonitrile to 90% acetonitrile. Calibration was carried out using unbranched alkan-2-ones (comprising 3 to 16 carbon atoms) with known log P values (determination of the log P values by the retention times using linear interpolation between two successive alkanones). lambda-max-values were determined using UV-spectra from 200 nm to 400 nm and the peak values of the chromatographic signals.

[2] = system: Botrytis cinerea; assay: In vivo preventive test Botrytis cinerea (grey mould); conditions: gherkin plants
Description: (§1) Example B: In Vivo Preventive Test Botrytis cinerea (Grey Mould) [table] The active ingredients are made soluble and homogenized in a mixture of Dimethyl sulfoxide/Acetone/Tween®80 and then diluted in water to the desired concentration. The young plants of gherkin are treated by spraying the active ingredient prepared as described above. Control plants are treated only with an aqueous solution of Acetone/Dimethyl sulfoxide/Tween® 80. After 24 hours, the plants are contaminated by spraying the leaves with an aqueous suspension of Botrytis cinerea spores. The contaminated gherkin plants are incubated for 4 to 5 days at 17° C. and at 90% relative humidity.

[3] = system: Puccinia recondita; assay: In vivo preventive test on Puccinia recondita (brown rust on wheat); conditions: 500 ppm, wheat plants, preventive spray, evaluated 11 days after inoculation
Description: as §1, with “C:” for “B:”, “on Puccinia recondita (Brown Rust on Wheat)” for “Botrytis cinerea (Grey Mould)”, “wheat” for “gherkin”, “Puccinia recondita” for “Botrytis cinerea”, “spores.” for “spores. The contaminated gherkin plants are incubated for 4 to 5 days at 17° C. and at 90% relative humidity.”

[4] = system: Septoria tritici; assay: In vivo preventive test on Septoria tritici (wheat); conditions: 500 ppm, wheat plants, preventive spray, evaluated 24 days after inoculation
Description: as §1, with “E:” for “B:”, “on Septoria tritici (Wheat)” for “Botrytis cinerea (Grey Mould)”, “wheat” for “gherkin”, “Septoria tritici” for “Botrytis cinerea”, “72 hours at 18° C. and at 100% relative humidity and then for 21” for “4 to 5”, “20°” for “17°”

[5] = system: Sphaerotheca fuliginea; assay: In vivo preventive test on Sphaerotheca fuliginea (powdery mildew on cucurbits); conditions: 500 ppm, gherkin plants, preventive spray, evaluated 15 days after inoculation
Description: as §1, with “F:” for “B:”, “on Sphaerotheca fuliginea (Powdery Mildew on Cucurbits)” for “Botrytis cinerea (Grey Mould)”, “Sphaerotheca fuliginea” for “Botrytis cinerea”, “spores.” for “spores. The contaminated gherkin plants are incubated for 4 to 5 days at 17° C. and at 90% relative humidity.”

[6] = system: Uromyces appendiculatus; assay: In vivo preventive test on Uromyces appendiculatus (bean rust); conditions: bean plants
Description: as §1, with “G:” for “B:”, “on Uromyces appendiculatus (Bean Rust)” for “Botrytis cinerea (Grey Mould)”, “bean” for “gherkin”, “Uromyces appendiculatus” for “Botrytis cinerea”, “spores.” for “spores. The contaminated gherkin plants are incubated for 4 to 5 days at 17° C. and at 90% relative humidity.”

[7] = system: Alternaria brassicae; assay: In vivo preventive test on Alternaria brassicae (leaf spot on radish); conditions: 500 ppm, radish plants, preventive spray, evaluated 6 days after inoculation
Description: (§2) Example A: In Vivo Preventive Test on Alternaria brassicae (Leaf Spot on Radish) [table] The active ingredients are made soluble and homogenized in a mixture of Dimethyl sulfoxide/Acetone/Tween®80 and then diluted in water to the desired concentration. The young plants of radish are treated by spraying the active ingredient prepared as described above. Control plants are treated only with an aqueous solution of Acetone/Dimethyl sulfoxide/Tween® 80. After 24 hours, the plants are contaminated by spraying the leaves with an aqueous suspension of Alternaria brassicae spores. The contaminated radish plants are incubated for 6 days at 20° C. and at 100% relative humidity.

[8] = system: Pyrenophora teres; assay: In vivo preventive test on Pyrenophora teres (net blotch on barley); conditions: 500 ppm, barley plants, preventive spray, evaluated 14 days after inoculation
Description: as §2, with “D:” for “A:”, “Pyrenophora teres (Net Blotch” for “Alternaria brassicae (Leaf Spot”, “Barley)” for “Radish)”, “barley” for “radish”, “Pyrenophora teres” for “Alternaria brassicae”, “spores.” for “spores. The contaminated radish plants are incubated for 6 days at 20° C. and at 100% relative humidity.”

[9] = system: Pyricularia oryzae; assay type: in vivo; conditions: dose 500 ppm, rice plants, preventive spray, evaluated 6 days after inoculation
[10] = system: Fusarium nivale (var. majus); assay: Efficacy against Fusarium nivale (var. majus) (wheat), curative test; assay type: in vivo; conditions: for Efficacy: evaluated 5 days after inoculation
Description: Example I: Efficacy Against Fusarium nivale (Var. Majus) (Wheat) [table] To produce a suitable preparation of active compound, 1 part by weight of active compound or active compound combination is mixed with the stated amounts of solvent and emulsifier, and the concentrate is diluted with water to the desired concentration. […] After the spray coating has dried on, the plants remain in a greenhouse under translucent incubation cloches at a temperature of approximately 10° C. and a relative atmospheric humidity of approximately 100%.

[11] = Table B, 500 ppm, preventive spray, evaluated 4 to 5 days after inoculation
[12] = Table G, 500 ppm, preventive spray, evaluated 11 days after inoculation

Structure (SMILES) | logP [1] | Efficacy [2, 11] [%] | Efficacy [3] [%] | Efficacy [4] [%] | Efficacy [5] [%] | Efficacy [6, 12] [%] | Efficacy [7] [%] | Efficacy [8] [%] | chromatographic logP [1] | Efficacy ([2]; Table B2, dose 100 ppm) [%] | Efficacy ([2]; Table B2, dose 500 ppm) | protection ([2]; dose of 100 ppm and 500 ppm) | Efficacy ([6]; Table G2, dose 100 ppm) [%] | Efficacy ([6]; Table G2, dose 100 ppm, listed as 1.01) | Efficacy [9] [%] | Efficacy ([9]; listed as 1.01) | Efficacy ([10]; dose 250 ppm) [%] | Efficacy ([10]; dose 500 ppm) [%] | protection ([10]; dose of 250 ppm and 500 ppm)
Cn1nc(C(F)F)c(C(=S)N(Cc2cccc3c2C2CCC3C2=C(Cl)Cl)C2CC2)c1F (stereo not drawn) [I.11] | 5.23 | 100 | 88 | 100 | 100 | 84 |  |  |  |  |  |  |  |  |  |  |  |  | 
Cn1nc(C(F)F)c(C(=O)N(Cc2cccc3c2C2C=CC3C2)C2CC2)c1F (stereo not drawn) [I.04] | 3.55 | 97 |  | 98 | 100 |  | 83 | 100 |  |  |  |  |  |  |  |  |  |  | 
Cn1nc(C(F)F)c(C(=S)N(Cc2cccc3c2C2CCC3C2)C2CC2)c1F (stereo not drawn) [I.02] | 4.64 | 97 | 97 | 100 | 100 | 100 | 79 |  |  |  |  |  |  |  |  |  |  |  | 
Cn1nc(C(F)F)c(C(=O)N(Cc2cccc3c2C2CCC3C2=C(Cl)Cl)C2CC2)c1F (stereo not drawn) [I.08, N-cyclopropyl-N-([9-(dichloromethylene)-1,2,3,4-tetrahydro-1,4-methanonaphthalen-5-yl]methyl)-3-(difluoromethyl)-5-fluoro-1-methyl-1H-pyrazole-4-carboxamide] |  | 100 | 83 | 100 | 100 |  | 100 | 97 | 4.51 |  |  |  |  |  |  |  |  |  | 
Cn1cc(C(=O)N(Cc2cccc3c2C2CCC3C2=C(Cl)Cl)C2CC2)c(C(F)F)n1 (stereo not drawn) [I.07] | 4.13 |  |  | 97 | 98 |  | 97 | 97 |  |  |  |  |  |  |  |  |  |  | 
Cn1nc(C(F)F)c(C(=O)N(Cc2cccc3c2C2CCC3C2)C2CC2)c1F (stereo not drawn) [I.01] | 3.87 | 100 | 98 | 100 | 100 |  | 81 | 100 |  | 98 | 100/100 | at least 98% | 99 | at least 95% | 75 | at least 70% | 100 | 100 | total protection
